Reference: patent US11077090B2, “Compounds and compositions and uses thereof” (Sunovion Pharmaceuticals Inc., priority 2016, dated 2021)

Test system: compound-treated mice
Experiment: Neuropharmacological assay (SmartCube): behavioral activity signature and minimal effective dose
Type: in vivo
Conditions: for Potency: minimal effective dose (MED) / minimal effective dose: MED = dose having 50% or more total activity; for AD: ADHD (probability of activity signature) / AG: analgesic (probability of activity signature) / MS: mood stabilizer (probability of activity signature) / UN: uncharacterized CNS activity (probability of activity signature) / AX: anxiolytic (probability of activity signature) / CE: cognitive enhancer (probability of activity signature) / DP: anti-depressant (probability of activity signature) / PS: anti-psychotic (probability of activity signature) / SD: sedative hypnotic (probability of activity signature): i.p. 15 min before test, most efficacious dose(s); for minimal effective dose: Mus musculus, ip, read-out: Potency: minimal effective dose (MED)
How it was run: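 Video-recorded behavior is compared algorithmically against a reference-compound database, yielding class probabilities (best dose reported). Compounds given i.p. in NMP/PEG/propylene glycol 15 min pre-test at 3 doses; potency as MED, the dose (mpk, range usually 0.3–30) reaching ≥50% total activity.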

SMILES: Cc1ccc2c(c1)C(N)COCC2.Cl (centres unmarked) [Example 31, 8-Methyl-1,2,4,5-tetrahydrobenzo[d]oxepin-1-amine hydrochloride]
- Potency: minimal effective dose (MED) (hydrochloride): C (>10 to ≤30 mpk)
- AD: ADHD (probability of activity signature): + (LOQ ≤ + <5%)
- AG: analgesic (probability of activity signature): ++ (5% ≤ ++ <25%)
- MS: mood stabilizer (probability of activity signature): + (LOQ ≤ + <5%)
- UN: uncharacterized CNS activity (probability of activity signature): +++ (25% ≤ +++ <50%)
- AX: anxiolytic (probability of activity signature) (hydrochloride): ++ (5% ≤ ++ <25%)
- CE: cognitive enhancer (probability of activity signature) (hydrochloride): + (LOQ ≤ + <5%)
- DP: anti-depressant (probability of activity signature) (hydrochloride): ++ (5% ≤ ++ <25%)
- PS: anti-psychotic (probability of activity signature) (hydrochloride): + (LOQ ≤ + <5%)
- SD: sedative hypnotic (probability of activity signature) (hydrochloride): + (LOQ ≤ + <5%)

SMILES: Cl.NC1COCCc2ccc3ccccc3c21 (centres unmarked) [Example 32]
- Potency: minimal effective dose (MED): C (>10 to ≤30 mpk)
- AD: ADHD (probability of activity signature): + (LOQ ≤ + <5%)
- AG: analgesic (probability of activity signature): ++ (5% ≤ ++ <25%)
- AX: anxiolytic (probability of activity signature): ++ (5% ≤ ++ <25%)
- CE: cognitive enhancer (probability of activity signature): + (LOQ ≤ + <5%)
- DP: anti-depressant (probability of activity signature): ++ (5% ≤ ++ <25%)
- MS: mood stabilizer (probability of activity signature): + (LOQ ≤ + <5%)
- PS: anti-psychotic (probability of activity signature): ++ (5% ≤ ++ <25%)
- SD: sedative hypnotic (probability of activity signature): ++ (5% ≤ ++ <25%)
- UN: uncharacterized CNS activity (probability of activity signature): + (LOQ ≤ + <5%)

SMILES: Cl.NC1CCOCc2ccccc21 (centres unmarked) [Example 33, 1,3,4,5-Tetrahydrobenzo[c]oxepin-5-amine hydrochloride]
- minimal effective dose: 10 to 30 mg/kg
- AD: ADHD (probability of activity signature): + (LOQ ≤ + <5%)
- AG: analgesic (probability of activity signature): ++ (5% ≤ ++ <25%)
- AX: anxiolytic (probability of activity signature): ++ (5% ≤ ++ <25%)
- CE: cognitive enhancer (probability of activity signature): ++ (5% ≤ ++ <25%)
- DP: anti-depressant (probability of activity signature): + (LOQ ≤ + <5%)
- MS: mood stabilizer (probability of activity signature): + (LOQ ≤ + <5%)
- PS: anti-psychotic (probability of activity signature): ++ (5% ≤ ++ <25%)
- SD: sedative hypnotic (probability of activity signature): + (LOQ ≤ + <5%)
- UN: uncharacterized CNS activity (probability of activity signature): +++ (25% ≤ +++ <50%)

SMILES: Cc1ccc2c(c1)C(N)COCC2.Cl (centres unmarked) [Example 34]
- Potency: minimal effective dose (MED): B (>3 to 10 mpk)
- AX: anxiolytic (probability of activity signature): +++ (25% ≤ +++ <50%)
- CE: cognitive enhancer (probability of activity signature): ++ (5% ≤ ++ <25%)
- DP: anti-depressant (probability of activity signature): + (LOQ ≤ + <5%)
- PS: anti-psychotic (probability of activity signature): ++ (5% ≤ ++ <25%)
- SD: sedative hypnotic (probability of activity signature): ++ (5% ≤ ++ <25%)

SMILES: Cl.NC1COCCc2ccc3ccccc3c21 (centres unmarked) [Example 35]
- Potency: minimal effective dose (MED): B (>3 to 10 mpk)
- AD: ADHD (probability of activity signature): + (LOQ ≤ + <5%)
- AG: analgesic (probability of activity signature): ++ (5% ≤ ++ <25%)
- AX: anxiolytic (probability of activity signature): +++ (25% ≤ +++ <50%)
- CE: cognitive enhancer (probability of activity signature): ++ (5% ≤ ++ <25%)
- DP: anti-depressant (probability of activity signature): ++ (5% ≤ ++ <25%)
- MS: mood stabilizer (probability of activity signature): + (LOQ ≤ + <5%)
- PS: anti-psychotic (probability of activity signature): ++ (5% ≤ ++ <25%)
- SD: sedative hypnotic (probability of activity signature): + (LOQ ≤ + <5%)
- UN: uncharacterized CNS activity (probability of activity signature): +++ (25% ≤ +++ <50%)

SMILES: Cc1ccc2c(c1)CCOCC2N.Cl (centres unmarked) [Example 36]
- minimal effective dose: 3 to 10 mg/kg
- AD: ADHD (probability of activity signature): + (LOQ ≤ + <5%)
- AG: analgesic (probability of activity signature): ++ (5% ≤ ++ <25%)
- AX: anxiolytic (probability of activity signature): ++ (5% ≤ ++ <25%)
- CE: cognitive enhancer (probability of activity signature): +++ (25% ≤ +++ <50%)
- DP: anti-depressant (probability of activity signature): ++ (5% ≤ ++ <25%)
- MS: mood stabilizer (probability of activity signature): + (LOQ ≤ + <5%)
- PS: anti-psychotic (probability of activity signature): ++ (5% ≤ ++ <25%)
- SD: sedative hypnotic (probability of activity signature): ++ (5% ≤ ++ <25%)
- UN: uncharacterized CNS activity (probability of activity signature): ++ (5% ≤ ++ <25%)
